2 substances from patent publication US6562874B1, “Compositions comprising combination of DEFI and modified DEFI and methods of making” (Unilever Home & Personal Care USA division of Conopco, Inc., priority 1999, dated 2003) can be followed below.

One series has as its system zein protein. Description: Mildness (Zein solubilization), standard Zein assay. Particulars: Table 5; 1% aqueous solution, 1.5 g zein, one hour.
Series [1] is described as follows: Foaming protocol for Examples 26-36, 250 mL graduated cylinder. Particulars: Table 5, 1 g in 20 mL water, 250 mL cylinder, shaken 60 seconds. Type of series: physicochemical. The method, then:
Protocol for Examples 26-36
One gram of final active mix is placed in a 250 mL glass-stoppered graduated cylinder and dispersed in 20 mL of distilled, de-ionized water; it is heated to 45° C. in a water bath until the temperature of the dispersion is at equilibrium. (note: For measurements done at 20° C., the water bath is set to 20° C. and the same procedure is followed). The sealed cylinder is then shaken vigorously for 60 seconds after which time the foam volume is measured in mL and recorded.

Series [2] is described as follows: Foaming measurement protocol (Examples 1-25), 100 mL graduated cylinder. Type of series: physicochemical. The conditions noted are these: 1 g active mix in 20 mL water, 45° C., shaken 60 seconds, 100 mL cylinder. The method, then:
Foaming Measurement Protocol (Examples 1-25)
One gram of final active mix is placed in a 100 mL glass stoppered graduated cylinder and dispersed in 20 mL of distilled de-ionized water; it is heated to 45° C. in a water bath until the temperature of the dispersion is at equilibrium. The sealed cylinder is then shaken vigorously for 60 seconds after which time the foam volume is measured in mL and recorded.

Procedure for zein protein: Mildness (Zein Solubilization)
This test is based on the correlation noted between the amount of zein solubilized by an aqueous surfactant solution and its irritancy; the more zein a surfactant dissolves, the greater its intrinsic irritation potential. The procedure is conducted gravimetrically: a 1% aqueous solution of surfactant mixture is added to 1.5 g of zein protein and this mixture is allowed to stir at a constant rate for one hour. This mixture is then centrifuged (for approximately 25 minutes at 4000 rpm) and the undissolved zein is isolated, rinsed and allowed to dry in a vacuum over at 60° C. to constant weight. The zein solubilized is determined by difference.

In turn, Coco N-Methyl Taurate registered a Zein with zein protein of 50.0%. For the same substance, in series [1] (20° C.), the “Foam at 20° C.” value is 122 mL. The “Foam at 45° C.” value in series [1] (45° C.) is 135 mL.
Take “sodium lauroyl isethionate [SLI - Control]”: the entries for the “Foam Vol.” value in series [2] (Table 1) and in series [2] (Table 2) were 89.5 mL and 95 mL, respectively.
